# Laboratory results from US20220152060A1, “PHYTOECDYSONES AND THE DERIVATIVES THEREOF FOR USE IN THE TREATMENT OF IMPAIRED LUNG FUNCTION” (BIOPHYTIS, priority 2019, published 2022).
# Columns and labels:
# mdx mice [1] = test: whole-body plethysmography of respiratory function in response to metacholine; format: in vivo
# Method: Male mice C57BL/10ScSnJ (healthy mice denoted as “C57Black10” in the figures) and C57BL/10ScSn-Dmdmdx/J (murine model of Duchenne muscular dystrophy, denoted “mdx” in the figures) aged 12 weeks, have been used. The mice have been divided into three groups of 12 mice each: an untreated group of healthy control mice C57Black10, a group of untreated mdx mice (mdx) and a group of mice chronically treated with a dose of 50 mg/kg/day, orally in the drinking water. The respiratory function of all the mice has been evaluated by whole-body plethysmography before the start of the study, (D0) then at 30 days (D30) and 60 days (D60) after the start of the treatment. After two months of treatment, the respiratory function has been invasively evaluated, just before sacrifice of the animal, by piston ventilated controlled by a central control unit (commonly called “computer”), said ventilator using the forced oscillation technique, such as the device known by the name FlexiVent™, in order to determine more directly the mechanical parameters of the respiratory system. In order to precisely monitor the change in respiratory function over the course of the treatment, whole-body plethysmography analyses (Emka Technologies, Paris, France) have been performed on the healthy control mice C57Black10, on the untreated mdx mice and on the mdx mice having been treated with BIO101. The advantages of this technique reside in the fact that it allows monitoring to be performed on an awake animal, freely moving in a hermetic enclosure, and that this is performed in a non-invasive manner. Consequently, the stress due to handling of the animals is reduced as it is possible to repeat the measurements over prolonged periods. Barometric plethysmography is therefore frequently used for measuring bronchial reactivity in small animals (Chong et al., 1998; Djuric et al., 1998; Hoffman et al., 1999). The pressure variations measured with respect to a reference chamber make it possible to define various respiratory parameters such as the peaks and times of inspiratory and expiratory pressure as well as a dimensionless quantity called Penh (enhanced Pause) which allows the bronchoconstriction to be evaluated. More specifically, the Penh, calculated from the pressure signal (Pb) in the chamber, is an important index to obtain, because the variations in Penh change in parallel with those of the respiratory resistance and it therefore represents a predictive parameter for changes in the resistive properties of the respiratory system (Hamelmann et al., 1997; Bergren, 2001; Onclinx et al., 2003). The following values have been calculated from the filtered Pb: the maximum variation in Pb during expiration (PEP: Peak Expiratory Pressure), the maximum change in Pb during inspiration (PIP: Peak Inspiratory Pressure) and the time interval (TR). The Penh value has then been calculated as follows: […] [Math. 1] where Pause=(TE−TR)/TE [Math. 2] • TE being the expiration time (Adler et al., 2004). Moreover, the peak inspiratory flow (PIF) and the peak expiratory flow (PEF), the relaxation time (RT) and the respiratory rate (BF) have also been measured and shown. The Penh value has been measured before the start of the treatment (D0), 30 days after the start of the treatment (D30) and 60 days after the treatment (D60). First, the entire cohort of mdx mice (n=24) were compared with healthy mice C57Black10 (n=12), before receiving the treatment. Awake mice were exposed to increasing doses of metacholine aerosols generated by a nebulizer containing 0 to 40 mg/mL of metacholine in PBS.
# mdx mice [2] = test: piston ventilator (FlexiVent) forced oscillation measurement of pulmonary resistance, compliance and elastance; format: in vivo; settings: 50 mg/kg/day oral
# Method: Male mice C57BL/10ScSnJ (healthy mice denoted as “C57Black10” in the figures) and C57BL/10ScSn-Dmdmdx/J (murine model of Duchenne muscular dystrophy, denoted “mdx” in the figures) aged 12 weeks, have been used. The mice have been divided into three groups of 12 mice each: an untreated group of healthy control mice C57Black10, a group of untreated mdx mice (mdx) and a group of mice chronically treated with a dose of 50 mg/kg/day, orally in the drinking water. The respiratory function of all the mice has been evaluated by whole-body plethysmography before the start of the study, (D0) then at 30 days (D30) and 60 days (D60) after the start of the treatment. After two months of treatment, the respiratory function has been invasively evaluated, just before sacrifice of the animal, by piston ventilated controlled by a central control unit (commonly called “computer”), said ventilator using the forced oscillation technique, such as the device known by the name FlexiVent™, in order to determine more directly the mechanical parameters of the respiratory system. In order to determine more directly the mechanical parameters of the respiratory system and the impact of a chronic treatment over a period of two months by BIO101 (D60) on these parameters, the dynamic pulmonary resistance was measured using a piston ventilator system as previously described, in response to increasing doses of metacholine. The mice were anaesthetized and connected by an endotracheal cannula to the piston ventilator system. After the start of mechanical ventilation, each mouse received an intraperitoneal injection of 0.1 mL of a 10 mg/mL rocuronium bromide solution. The animal was ventilated at a respiratory rate of 150 respirations/minute and with a tidal volume of 10 mL/kg against a final positive expiratory pressure of 3 cm H2O. The respiratory mechanisms were evaluated using a forced oscillation maneuver with a duration of 1.2 seconds (2.5 Hz) and a 3-second wideband forced oscillation man oeuvre containing 13 primordial frequencies between 1 and 20.5 Hz. The resistance of the respiratory system (R) was calculated using a microcomputer type central processing unit connected to the piston ventilator system and comprising, in particular, software for performing said calculation. The two maneuvers were carried out alternately every 15 seconds after each nebulization with a metacholine aerosol, in order to measure the change in the response time of the bronchoconstriction induced by metacholine. The pulmonary resistance, compliance and elastance could thus be determined.
smiles,measurement,setting,value
"CC(C)(O)CC[C@@H](O)[C@](C)(O)[C@H]1CC[C@@]2(O)C3=CC(=O)[C@@H]4C[C@@H](O)[C@@H](O)C[C@]4(C)[C@H]3CC[C@]12C [BIO101, 20-hydroxyecdysone]",relaxation time,"mdx mice [1]; 50 mg/kg/day oral, 30 days, compared with untreated mdx mice, p<0.05 (FIG. 3D)",clear improvement in relaxation time
same,peak inspiratory flow (cited to FIG. 3B),"mdx mice [1]; 50 mg/kg/day oral, 30 days, in comparison to D0",remain unchanged
same,respiratory rate,"mdx mice [1]; 50 mg/kg/day oral, 30 days, in comparison to D0 (FIG. 3E)",remain unchanged
same,peak inspiratory flow (cited to FIG. 3C),"mdx mice [1]; 50 mg/kg/day oral, 30 days, in particular equilibrium state or low metacholine dose, p<0.05",increase in peak inspiratory flow
same,peak expiratory flow,"mdx mice [1]; 50 mg/kg/day oral, 60 days",remain unchanged
same,relaxation time,"mdx mice [1]; 50 mg/kg/day oral, 60 days (FIG. 4D)",trend towards improved relaxation time
same,respiratory rate,"mdx mice [1]; 50 mg/kg/day oral, 60 days (FIG. 4E)",remain unchanged
same,peak inspiratory flow,"mdx mice [1]; 50 mg/kg/day oral, 60 days, p<0.05 (FIG. 4B)",significant improvement
same,mean Penh value,"mdx mice [1]; 50 mg/kg/day oral, D60, metacholine dose of 40 mg/mL, untreated mdx 4, healthy 1.04 (FIG. 6B)",1.87
same,Penh in response to metacholine,"mdx mice [1]; 50 mg/kg/day oral, after 60 days of treatment, compared to untreated mdx mice, p<0.0001 (FIG. 4A)",significant reduction in the Penh
same,Penh in response to metacholine,"mdx mice [1]; 50 mg/kg/day orally in drinking water, after 30 days of treatment, compared to mdx mice at D0, p<0.001 (FIG. 3A)",significant reduction in Penh
same,resistance of the airways (pulmonary resistance),"mdx mice [2]; 60 days, metacholine 0 to 20 mg/mL, vs untreated mdx mice, p<0.0001",significantly lower resistance of the airways
same,pulmonary compliance,"mdx mice [2]; D60, metacholine 20 mg/mL, untreated mdx 0.017, healthy 0.031 (FIG. 8B)",0.029 mL/cmH2O
same,pulmonary elastance,"mdx mice [2]; D60, metacholine 20 mg/mL, untreated mdx 34.8, healthy 62.8 as printed (FIG. 8C)",69.1 cmH2O/mL
same,"pulmonary compliance, change at increasing metacholine doses","mdx mice [2]; two months, p<0.0001 (FIG. 7B)",significantly improved
same,"pulmonary elastance, change at increasing metacholine doses","mdx mice [2]; two months, p<0.0001 (FIG. 7C)",significantly improved
